What was measured:
CDK2/CycE = biological target: T1, CDK2/CycE (Homo sapiens, UniProt P24941); test: CDK2/CycE kinase assay; type: biochemical; conditions: 0.5 μM ATP, 22° C., 10 min
T1 construct: GST; purchased ProQinase GmbH, Freiburg; host or cells: baculovirus-infected Sf9 insect cells
Experimental: Recombinant CDK2- and CycE-GST fusion proteins, purified from baculovirus-infected insect cells (Sf9), were purchased from ProQinase GmbH, Freiburg. The histone IIIS used as kinase substrate was purchased from Sigma. CDK2/CycE (50 ng/measurement point) was incubated in the presence of various concentrations of test substances (0 μM, and within the range 0.01-100 μM) in assay buffer [50 mM Tris/HCl pH 8.0, 10 mM MgCl2, 0.1 mM Na ortho-vanadate, 1.0 mM dithiothreitol, 0.5 μM ATP, 10 μg/measurement point histone IIIS, 0.2 μCi/measurement point ^33P-gamma ATP, 0.05% NP40, 1.25% dimethyl sulphoxide] at 22° C. for 10 min. The reaction was stopped by adding EDTA solution (250 mM, pH 8.0, 15 μl/measurement point).
15 μl of each reaction mixture were loaded onto P30 filter strips (from Wallac), and non-incorporated ^33P-ATP was removed by washing the filter strips three times in 0.5% strength phosphoric acid for 10 min each time.
After the filter strips had been dried at 70° C. for 1 hour, the filter strips were covered with scintillator strips (MeltiLex™ A, from Wallac) and baked at 90° C. for 1 hour. The amount of incorporated ^33P (substrate phosphorylation) was determined by scintillation measurement in a gamma radiation counter (Wallac).

Tie-2 = biological target: T2, Tie-2 (Homo sapiens, UniProt Q02763); test: Tie-2 kinase assay; type: biochemical; conditions: 10 μM ATP, 20 min
T2 construct: made in house; host or cells: Hi5 insect cells
T2 sequence (Q02763 23-1124, species assumed): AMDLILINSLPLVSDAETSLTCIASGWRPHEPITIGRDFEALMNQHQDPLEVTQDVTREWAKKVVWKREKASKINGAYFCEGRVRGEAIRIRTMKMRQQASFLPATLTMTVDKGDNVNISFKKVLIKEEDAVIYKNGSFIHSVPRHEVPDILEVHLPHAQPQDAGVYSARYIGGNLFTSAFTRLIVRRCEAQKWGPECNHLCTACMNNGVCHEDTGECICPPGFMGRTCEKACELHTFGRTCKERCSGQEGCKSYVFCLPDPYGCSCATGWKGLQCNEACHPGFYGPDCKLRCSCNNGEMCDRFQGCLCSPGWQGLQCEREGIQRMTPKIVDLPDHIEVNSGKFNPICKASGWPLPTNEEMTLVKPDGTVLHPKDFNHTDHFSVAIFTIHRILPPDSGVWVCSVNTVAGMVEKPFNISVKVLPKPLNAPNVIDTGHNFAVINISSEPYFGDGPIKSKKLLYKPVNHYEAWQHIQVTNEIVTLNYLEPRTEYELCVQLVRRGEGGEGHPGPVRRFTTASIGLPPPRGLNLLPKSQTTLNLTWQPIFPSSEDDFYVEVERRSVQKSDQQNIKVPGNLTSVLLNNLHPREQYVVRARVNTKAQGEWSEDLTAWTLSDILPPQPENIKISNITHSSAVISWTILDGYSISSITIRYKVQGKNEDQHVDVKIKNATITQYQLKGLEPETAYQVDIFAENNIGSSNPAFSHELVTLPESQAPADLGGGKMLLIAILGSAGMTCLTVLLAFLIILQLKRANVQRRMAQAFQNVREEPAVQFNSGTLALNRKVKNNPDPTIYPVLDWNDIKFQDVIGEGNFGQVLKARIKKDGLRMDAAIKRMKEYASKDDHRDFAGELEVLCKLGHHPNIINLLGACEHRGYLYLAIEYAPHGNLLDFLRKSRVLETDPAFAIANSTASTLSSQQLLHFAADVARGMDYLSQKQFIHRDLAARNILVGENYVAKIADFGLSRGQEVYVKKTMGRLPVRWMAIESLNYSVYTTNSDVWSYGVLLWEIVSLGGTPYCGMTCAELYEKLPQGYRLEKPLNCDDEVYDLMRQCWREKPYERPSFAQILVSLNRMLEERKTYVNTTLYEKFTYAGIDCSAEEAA
Experimental: Recombinant Tie-2 protein was expressed in Hi5 insect cells and then purified. The kinase substrate used was the biotinylated peptide having the amino acid sequence biotin-EPKDDAYPLYSDFG, which was purchased from Biosynthan. Tie-2 [concentration in the mixture 5 ng/μl] was preincubated in the presence of 100 μM ATP in assay buffer [50 mM HEPES pH 7.0, 0.5 mM MgCl2, 1.0 mM dithiothreitol, 0.01% NP40, 1 tablet/2.5 ml complete protease inhibitor (from Roche)] at 22° C. for 20 min. The enzyme reaction [0.5 ng/μl Tie-2 in the test mixture, test volume 5 μl] then took place in the presence of various concentrations of test substances (0 μM, and 10 measurement points within the range 0.001-20 μM in duplicate) in assay buffer with 10 μM ATP, 1.0 μM substrate peptide biotin-EPKDDAYPLYSDFG, 1.0% dimethyl sulphoxide for 20 min. The reaction was stopped by adding 5 μl of an EDTA/detection solution [50 mM HEPES pH 7.5, 89 mM EDTA, 0.28% BSA, 0.2 μM streptavidin-XLent (from CisBio), 2 nM PT66-Eu (from PerkinElmer)]. The fluorescence emission at 620 nm and 665 nm after excitation with light of the wavelength 350 nm was measured in a Rubystar HTRF instrument from BMG Labsystems.
The measured data (ratio of emission 665 divided by emission 620 multiplied by 10 000) were normalized to 0% inhibition (enzyme reaction without inhibitor) and 100% inhibition (all assay components apart from enzyme). The IC50 values were determined by means of a 4-parameter fit using the company's own software.

SMILES | IC50 (CDK2/CycE) [µM] | IC50 (Tie-2) [µM]
CCCS(=O)(=O)N=S(C)(=O)c1ccc2cc1NCCCCNc1nc(ncc1Br)N2 (racemic) [Example 7, (RS)—S-[1^5-Bromo-2,4,9-triaza-1(2,4)-pyrimidina-3(1,3)-benzenacyclononaphan-3^4-yl]-S-methyl-N-(propylsulphonyl)sulphoximide] | > 1 | 1.7
CCCOC(=O)N=S(C)(=O)c1ccc2cc1OCCCCNc1nc(ncc1Br)N2 (racemic) [Example 8, (RS)—S-[1^5-Bromo-4-oxa-2,9-diaza-1(2,4)-pyrimidina-3(1,3)-benzenacyclononaphan-3^4-yl]-S-methyl-N-(propoxycarbonyl)sulphoximide] | > 1 | 17.1
C[Si](C)(C)CCS(=O)(=O)N=S(C)(=O)c1ccc2cc1OCCCCNc1nc(ncc1Br)N2 (racemic) [Example 9, (RS)—S-[1^5-Bromo-4-oxa-2,9-diaza-1(2,4)-pyrimidina-3(1,3)-benzenacyclononaphan-3^4-yl]-S-methyl-N-[2-(trimethylsilyl)ethylsulphonyl]sulphoximide] | > 1 | > 10
C[Si](C)(C)CCS(=O)(=O)N=S(C)(=O)c1ccc2cc1NCCCCNc1nc(ncc1Br)N2 (racemic) [Example 5, (RS)—S-[1^5-Bromo-2,4,9-triaza-1(2,4)-pyrimidina-3(1,3)-benzenacyclononaphan-3^4-yl]-S-methyl-N-[2-(trimethylsilyl)ethylsulphonyl]sulphoximide] | > 1 | –

The next lines start with the values.

IC50 (CDK2/CycE) [µM] | IC50 (Tie-2) [µM] | SMILES
0.323 | 2.92 | CCOC(=O)N=S(C)(=O)c1ccc2cc1NCCCCNc1nc(ncc1Br)N2 (racemic) [Example 1, (RS)—S-[1^5-Bromo-2,4,9-triaza-1(2,4)-pyrimidina-3(1,3)-benzenacyclononaphan-3^4-yl]-N-(ethoxycarbonyl)-S-methylsulphoximide]
0.229 | – | CCOC(=O)N=S(C)(=O)c1ccc2cc1NCCCCNc1nc(ncc1Br)N2 (single isomer, unassigned) [Example 2]
0.071 | 1.41 | CCNC(=O)N=S(C)(=O)c1ccc2cc1NCCCCNc1nc(ncc1Br)N2 (racemic) [Example 6, (RS)—S-[1^5-Bromo-2,4,9-triaza-1(2,4)-pyrimidina-3(1,3)-benzenacyclononaphan-3^4-yl]-N-(ethylcarbamoyl)-S-methylsulphoximide]
0.319 | – | CCOC(=O)N=S(C)(=O)c1ccc2cc1NCCCCNc1nc(ncc1I)N2 (racemic) [Example 4, (RS)—N-(Ethoxycarbonyl)-S-[1^5-iodo-2,4,9-triaza-1(2,4)-pyrimidina-3(1,3)-benzenacyclononaphan-3^4-yl]-S-methylsulphoximide]
0.99 | – | CCOC(=O)N=S(C)(=O)c1ccc2cc1NCCCCNc1nc(ncc1Br)N2 (single isomer, unassigned) [Example 3]
